pIC50: −log10 of the molar value. Blank lines part the entries; values can stand above or below the compound they belong to.
Target: T1, PD-1/PD-L1 (Homo sapiens, UniProt Q9NZQ7)
T1 construct: TVMV protease site linker (C); made in house; host or cells: HEK293T cells
Experiment: PD-1/PD-L1 Homogenous Time-Resolved Fluorescence (HTRF) binding assay
Conditions: PD-L1-His 10 nM, PD-1-Ig 20 nM
In short: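 Inhibitors pre-incubated 15 min with PD-L1-His extracellular domain (10 nM final) in dPBS with 0.1% BSA and 0.05% Tween-20, then PD-1-Ig (20 nM final) added for a further 15 min. Read-out by HTRF with europium cryptate anti-Ig (1 nM) and APC anti-His (20 nM). Related pairs: PD-1-Ig/PD-L2-His (20/5 nM), CD80-His/PD-L1-Ig (100/10 nM).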

T1 sequence (Q9NZQ7 18-239): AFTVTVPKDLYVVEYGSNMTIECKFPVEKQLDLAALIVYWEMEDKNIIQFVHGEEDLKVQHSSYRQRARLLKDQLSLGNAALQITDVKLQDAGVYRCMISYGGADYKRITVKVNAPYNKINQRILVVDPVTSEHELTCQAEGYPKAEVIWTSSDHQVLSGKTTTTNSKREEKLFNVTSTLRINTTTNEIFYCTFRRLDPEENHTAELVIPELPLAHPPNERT

SMILES: Cc1c(COc2cc(OCc3cncc(C#N)c3)c(CN(C)Cc3cncnc3)cc2Cl)cccc1-c1cccc(OCCCN2CC[C@@H](O)C2)c1C [Example 2032, (R)-5-((4-chloro-5-((3′-(3-(3-hydroxypyrrolidin-1-yl)propoxy)-2,2′-dimethyl-[1,1′-biphenyl]-3-yl)methoxy)-2-((methyl(pyrimidin-5-ylmethyl)amino)methyl)phenoxy)methyl)nicotinonitrile]
- pIC50: 8.60

SMILES: CCN(CCO)CCCOc1cccc(-c2cccc(COc3cc(OCc4cncc(C#N)c4)c(CNCc4c[nH]cn4)cc3Cl)c2C)c1C [Example 2033, 5-((2-((((1H-imidazol-4-yl)methyl)amino)methyl)-4-chloro-5-((3′-(3-(ethyl(2-hydroxyethyl)amino)propoxy)-2,2′-dimethyl-[1,1′-biphenyl]-3-yl)methoxy)phenoxy)methyl)nicotinonitrile]
- pIC50: 8.54

SMILES: Cc1c(COc2cc(OCc3cncc(C#N)c3)c(CNCc3ccnc(C#N)n3)cc2Cl)cccc1-c1cccc(OCCCN2CC[C@@H](O)C2)c1C [Example 2040, (R)-4-(((5-chloro-2-((5-cyanopyridin-3-yl)methoxy)-4-((3′-(3-(3-hydroxypyrrolidin-1-yl)propoxy)-2,2′-dimethyl-[1,1′-biphenyl]-3-yl)methoxy)benzyl)amino)methyl)pyrimidine-2-carbonitrile]
- pIC50: 8.09

SMILES: Cc1c(COc2cc(OCc3cncc(C#N)c3)c(CNCc3ccnc(C(N)=O)n3)cc2Cl)cccc1-c1cccc(OCCCN2CC[C@@H](O)C2)c1C [Example 2041, (R)-4-(((5-chloro-2-((5-cyanopyridin-3-yl)methoxy)-4-((3′-(3-(3-hydroxypyrrolidin-1-yl)propoxy)-2,2′-dimethyl-[1,1′-biphenyl]-3-yl)methoxy)benzyl)amino)methyl)pyrimidine-2-carboxamide]
- pIC50: 8.72

SMILES: Cc1[nH]cnc1COc1cc(OCc2cccc(-c3cccc(OCCCN4CC[C@@H](O)C4)c3C)c2C)c(Cl)cc1CNCc1ccnc(C#N)n1 [Example 2042, (R)-4-(((5-chloro-4-((3′-(3-(3-hydroxypyrrolidin-1-yl)propoxy)-2,2′-dimethyl-[1,1′-biphenyl]-3-yl)methoxy)-2-((5-methyl-1H-imidazol-4-yl)methoxy)benzyl)amino)methyl)pyrimidine-2-carbonitrile]
- pIC50: 7.05

SMILES: Cc1c(COc2cc(OCc3ncn(C(c4ccccc4)(c4ccccc4)c4ccccc4)c3C)c(CNCc3ccnc(C#N)n3)cc2Cl)cccc1-c1cccc(OCCCN2CC[C@@H](O)C2)c1C [Example 2043, (R)-4-(((5-chloro-4-((3′-(3-(3-hydroxypyrrolidin-1-yl)propoxy)-2,2′-dimethyl-[1,1′-biphenyl]-3-yl)methoxy)-2-((5-methyl-1-trityl-1H-imidazol-4-yl)methoxy)benzyl)amino)methyl)pyrimidine-2-carbonitrile]
- pIC50: < 5.00

SMILES: Cc1c(COc2cc(OCc3cncc(C#N)c3)c(CNCc3ccnc(C#N)n3)cc2Cl)cccc1-c1cccc(OCCCN2CCC(O)(CO)CC2)c1Cl [Example 2044, 4-(((5-chloro-4-((2′-chloro-3′-(3-(4-hydroxy-4-(hydroxymethyl)piperidin-1-yl)propoxy)-2-methyl-[1,1′-biphenyl]-3-yl)methoxy)-2-((5-cyanopyridin-3-yl)methoxy)benzyl)amino)methyl)pyrimidine-2-carbonitrile]
- pIC50: 8.85

SMILES: Cc1c(COc2cc(OCc3cncc(C#N)c3)c(CN(C)Cc3ccnc(C#N)n3)cc2Cl)cccc1-c1cccc(OCCCN2CC[C@@H](O)C2)c1C [Example 2045, (R)-4-(((5-chloro-2-((5-cyanopyridin-3-yl)methoxy)-4-((3′-(3-(3-hydroxypyrrolidin-1-yl)propoxy)-2,2′-dimethyl-[1,1′-biphenyl]-3-yl)methoxy)benzyl) (methyl)amino)methyl)pyrimidine-2-carbonitrile]
- pIC50: 7.79

SMILES: Cc1c(COc2cc(OCc3cncc(C#N)c3)c(CNCc3cncs3)cc2Cl)cccc1-c1cccc(OC2CCN(C)CC2)c1Cl [Example 2046, 5-((4-chloro-5-((2′-chloro-2-methyl-3′-((1-methylpiperidin-4-yl)oxy)-[1,1′-biphenyl]-3-yl)methoxy)-2-(((thiazol-5-ylmethyl)amino)methyl)phenoxy)methyl)nicotinonitrile]
- pIC50: 7.49

SMILES: Cc1c(COc2cc(OCc3cncc(C#N)c3)c(CNCc3cnc[nH]3)cc2Cl)cccc1-c1cccc(OC2CCN(C)CC2)c1Cl [Example 2047, 5-((2-((((1H-imidazol-5-yl)methyl)amino)methyl)-4-chloro-5-((2′-chloro-2-methyl-3′-((1-methylpiperidin-4-yl)oxy)-[1,1′-biphenyl]-3-yl)methoxy)phenoxy)methyl)nicotinonitrile]
- pIC50: 8.46

SMILES: Cc1c(COc2cc(OCc3cncc(C#N)c3)c(CN(C)Cc3cncs3)cc2Cl)cccc1-c1cccc(OC2CCN(C)CC2)c1Cl [Example 2048, 5-((4-chloro-5-((2′-chloro-2-methyl-3′-((1-methylpiperidin-4-yl)oxy)-[1,1′-biphenyl]-3-yl)methoxy)-2-((methyl(thiazol-5-ylmethyl)amino)methyl)phenoxy)methyl)nicotinonitrile]
- pIC50: 6.45

SMILES: Cc1c(COc2cc(OCc3cncc(C#N)c3)c(CN(C)Cc3cnc[nH]3)cc2Cl)cccc1-c1cccc(OC2CCN(C)CC2)c1Cl [Example 2049, 5-((2-((((1H-imidazol-5-yl)methyl)(methyl)amino)methyl)-4-chloro-5-((2′-chloro-2-methyl-3′-((1-methylpiperidin-4-yl)oxy)-[1,1′-biphenyl]-3-yl)methoxy)phenoxy)methyl)nicotinonitrile]
- pIC50: 8.80

SMILES: Cc1c(COc2cc(OCc3cncnc3)c(CNCc3ncc[nH]3)cc2Cl)cccc1-c1cccc(OCCCN2CC[C@@H](O)C2)c1C [Example 2050, (R)-1-(3-((3′-((4-((((1H-imidazol-2-yl)methyl)amino)methyl)-2-chloro-5-(pyrimidin-5-ylmethoxy)phenoxy)methyl)-2,2′-dimethyl-[1,1′-biphenyl]-3-yl)oxy)propyl)pyrrolidin-3-ol]
- pIC50: 8.77

SMILES: Cc1c(COc2cc(OCc3cncnc3)c(CNCc3cn[nH]c3)cc2Cl)cccc1-c1cccc(OCCCN2CC[C@@H](O)C2)c1C [Example 2051, (R)-1-(3-((3′-((4-((((1H-pyrazol-4-yl)methyl)amino)methyl)-2-chloro-5-(pyrimidin-5-ylmethoxy)phenoxy)methyl)-2,2′-dimethyl-[1,1′-biphenyl]-3-yl)oxy)propyl)pyrrolidin-3-ol]
- pIC50: 8.70

SMILES: Cc1c(COc2cc(OCc3cncc(C#N)c3)c(CNCc3cn[nH]c3)cc2Cl)cccc1-c1cccc(OC2CCC(N3CCCC3)CC2)c1Cl (stereo not shown) [Example 2052, 5-((2-((((1H-pyrazol-4-yl)methyl)amino)methyl)-4-chloro-5-((2′-chloro-2-methyl-3′-((4-(pyrrolidin-1-yl)cyclohexyl)oxy)-[1,1′-biphenyl]-3-yl)methoxy)phenoxy)methyl)nicotinonitrile]
- pIC50: 8.02

Continued, values first:

- pIC50: 8.54
SMILES: Cc1c(COc2cc(OCc3cncc(C#N)c3)c(CNCc3ncc[nH]3)cc2Cl)cccc1-c1cccc(OC2CCC(N3CCCC3)CC2)c1Cl (stereo not shown) [Example 2053, 5-((2-((((1H-imidazol-2-yl)methyl)amino)methyl)-4-chloro-5-((2′-chloro-2-methyl-3′-((4-(pyrrolidin-1-yl)cyclohexyl)oxy)-[1,1′-biphenyl]-3-yl)methoxy)phenoxy)methyl)nicotinonitrile]

- pIC50: 8.25
SMILES: Cc1c(COc2cc(OCc3cccnn3)c(CNCc3cn[nH]c3)cc2Cl)cccc1-c1cccc(OCC2CCCN(C)C2)c1Cl (stereo not shown) [Example 2054, N-((1H-pyrazol-4-yl)methyl)-1-(5-chloro-4-((2′-chloro-2-methyl-3′-((1-methylpiperidin-3-yl)methoxy)-[1,1′-biphenyl]-3-yl)methoxy)-2-(pyridazin-3-ylmethoxy)phenyl)methanamine]

- pIC50: 8.51
SMILES: Cc1c(COc2cc(OCc3cccnn3)c(CNCc3ncc[nH]3)cc2Cl)cccc1-c1cccc(OCC2CCCN(C)C2)c1Cl (stereo not shown) [Example 2055, N-((1H-imidazol-2-yl)methyl)-1-(5-chloro-4-((2′-chloro-2-methyl-3′-((1-methylpiperidin-3-yl)methoxy)-[1,1′-biphenyl]-3-yl)methoxy)-2-(pyridazin-3-ylmethoxy)phenyl)methanamine]

- pIC50: 8.46
SMILES: COc1cc(OCc2cccc(-c3cccc(OCC4CCCN(C)C4)c3Cl)c2C)c(Cl)cc1CNCc1cn[nH]c1 (stereo not shown) [Example 2056, N-((1H-pyrazol-4-yl)methyl)-1-(5-chloro-4-((2′-chloro-2-methyl-3′-((1-methylpiperidin-3-yl)methoxy)-[1,1′-biphenyl]-3-yl)methoxy)-2-methoxyphenyl)methanamine]

- pIC50: 8.20
SMILES: COc1cc(OCc2cccc(-c3cccc(OCC4CCCN(C)C4)c3Cl)c2C)c(Cl)cc1CNCc1ncc[nH]1 (stereo not shown) [Example 2057, N-((1H-imidazol-2-yl)methyl)-1-(5-chloro-4-((2′-chloro-2-methyl-3′-((1-methylpiperidin-3-yl)methoxy)-[1,1′-biphenyl]-3-yl)methoxy)-2-methoxyphenyl)methanamine]

- pIC50: 8.41
SMILES: Cc1c(COc2cc(OCc3cnccn3)c(CNCc3cccnn3)cc2Cl)cccc1-c1cccc(OCC2CCCN(C)C2)c1Cl (stereo not shown) [Example 2058, N-(5-chloro-4-((2′-chloro-2-methyl-3′-((1-methylpiperidin-3-yl)methoxy)-[1,1′-biphenyl]-3-yl)methoxy)-2-(pyrazin-2-ylmethoxy)benzyl)-1-(pyridazin-3-yl)methanamine]

- pIC50: 8.36
SMILES: Cc1c(COc2cc(OCc3cnccn3)c(CNCc3ncccn3)cc2Cl)cccc1-c1cccc(OCC2CCCN(C)C2)c1Cl (stereo not shown) [Example 2059, N-(5-chloro-4-((2′-chloro-2-methyl-3′-((1-methylpiperidin-3-yl)methoxy)-[1,1′-biphenyl]-3-yl)methoxy)-2-(pyrazin-2-ylmethoxy)benzyl)-1-(pyrimidin-2-yl)methanamine]
